Data from a compilation of properties of binary mixtures (doi:10.1016/j.molliq.2022.120983).

Assay: xn = mol fraction of the nth substance listed
Details: 101.3 kPa

| SMILES | viscosity (298.1 K, x1 = 0.0588) [mPa·s] | viscosity (298.1 K, x1 = 0.1232) [mPa·s] | viscosity (313 K, x1 = 0.0588) [mPa·s] | viscosity (313 K, x1 = 0.2726) [mPa·s] | viscosity (333 K, x1 = 0.1232) [mPa·s] | viscosity (333 K, x1 = 0.2726) [mPa·s] | viscosity (298.1 K, x1 = 0.0631) [mPa·s] | viscosity (298.1 K, x1 = 0.1317) [mPa·s] | viscosity (298.1 K, x1 = 0.2879) [mPa·s] | viscosity (313 K, x1 = 0.0631) [mPa·s] | viscosity (313 K, x1 = 0.1317) [mPa·s] | viscosity (313 K, x1 = 0.2879) [mPa·s] | viscosity (333 K, x1 = 0.0631) [mPa·s] | viscosity (333 K, x1 = 0.1317) [mPa·s] | viscosity (333 K, x1 = 0.2879) [mPa·s] |
| --- | --- | --- | --- | --- | --- | --- | --- | --- | --- | --- | --- | --- | --- | --- | --- |
| C[C@H](N)C(=O)[O-].C[N+](C)(C)CCO + O | 5 | 9.1 | 3.18 | 18.2 | 3.64 | 10.2 | – | – | – | – | – | – | – | – | – |
| C[N+](C)(C)CCO.NCC(=O)[O-] + O | – | – | – | – | – | – | 4.09 | 10 | 20.9 | 2.73 | 6.4 | 12.3 | 1.82 | 3.64 | 7.3 |
